Results published in the supplement of paper PMC11061612.

What was measured:
Carboplatin = compound: C1CC(C1)(C(=O)[O-])C(=O)[O-].N.N.[Pt+2] [Carboplatin]; details: max 10 µM
In short: (§1)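 Following 24 hours at 37°C and 5% CO2, cancer cell lines in 1536-well plates with 7.5 μl DMEM/F12 or RPMI and 10% FBS were dosed for 72 hours, final DMSO typically being 0.2%. CellTiter-Glo 2.0 luminescence, scaled between blank-well and DMSO-well means, gave the viability readout. Dose responses were fitted to a two-parameter logistic curve with a non-linear mixed effects model, and the single-agent IC50 was derived from this fit.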

AZD5363 = compound: C1CN(CCC1(C(=O)N[C@@H](CCO)C2=CC=C(C=C2)Cl)N)C3=NC=NC4=C3C=CN4 [AZD5363]; details: max 10 µM
In short: as §1

AZD1775 = compound: C=CCn1c(=O)c2cnc(Nc3ccc(N4CCN(C)CC4)cc3)nc2n1-c1cccc(C(C)(C)O)n1 [AZD1775]; details: max 3 µM
In short: as §1

Trametinib = compound: CC(=O)Nc1cccc(-n2c(=O)n(C3CC3)c(=O)c3c(Nc4ccc(I)cc4F)n(C)c(=O)c(C)c32)c1 [Trametinib]; details: max 1 µM
In short: as §1

Paclitaxel = compound: CC(=O)O[C@H]1C(=O)[C@@]2(C)[C@H]([C@H](OC(=O)c3ccccc3)[C@]3(O)C[C@H](OC(=O)[C@H](O)[C@@H](NC(=O)c4ccccc4)c4ccccc4)C(C)=C1C3(C)C)[C@]1(OC(C)=O)CO[C@@H]1C[C@@H]2O [Paclitaxel]; details: max 3 µM
In short: as §1

Palbociclib = compound: CC(=O)c1c(C)c2cnc(Nc3ccc(N4CCNCC4)cn3)nc2n(C2CCCC2)c1=O [Palbociclib]; details: max 10 µM
In short: as §1

AZD1390 = compound: CC(C)n1c(=O)n(C)c2cnc3cc(F)c(-c4ccc(OCCCN5CCCCC5)nc4)cc3c21 [AZD1390]; details: max 0.3 µM
In short: as §1

Venetoclax = compound: CC1(C)CCC(CN2CCN(c3ccc(C(=O)NS(=O)(=O)c4ccc(NCC5CCOCC5)c([N+](=O)[O-])c4)c(Oc4cnc5[nH]ccc5c4)c3)CC2)=C(c2ccc(Cl)cc2)C1 [Venetoclax]; details: max 1 µM
In short: as §1

Dasatinib = compound: CC1=C(C(=CC=C1)Cl)NC(=O)C2=CN=C(S2)NC3=CC(=NC(=N3)C)N4CCN(CC4)CCO [Dasatinib]; details: max 2 µM
In short: as §1

SG3199 = compound: CC1=CN2[C@@H](C1)C=NC3=CC(=C(C=C3C2=O)OC)OCCCCCOC4=C(C=C5C(=C4)N=C[C@@H]6CC(=CN6C5=O)C)OC [SG3199]; details: max 0.001 µM
In short: as §1

AZD2811 = compound: CCN(CCO)CCCOc1ccc2c(Nc3cc(CC(=O)Nc4cccc(F)c4)[nH]n3)ncnc2c1 [AZD2811]; details: max 1 µM
In short: as §1

SN-38 = compound: CCc1c2c(nc3ccc(O)cc13)-c1cc3c(c(=O)n1C2)COC(=O)[C@]3(O)CC [SN-38]; details: max 0.3 µM
In short: as §1

AZD0156 = compound: CN(C)CCCOc1ccc(-c2ccc3ncc4c(c3c2)n(C2CCOCC2)c(=O)n4C)cn1 [AZD0156]; details: max 3 µM
In short: as §1

AZD4320 = compound: CN(CC[C@H](CSC1=CC=CC=C1)NC2=C(C=C(C=C2)S(=O)(=O)NC(=O)C3=CC=C(C=C3)N4CCC(CC4)[C@H](C5=CC=CC=C5C6=CC=C(C=C6)Cl)O)S(=O)(=O)C(F)(F)F)CCO [AZD4320]; details: max 1 µM
In short: as §1

Alisertib = compound: COc1cc(Nc2ncc3c(n2)-c2ccc(Cl)cc2C(c2c(F)cccc2OC)=NC3)ccc1C(=O)O [Alisertib]; details: max 10 µM
In short: as §1

Etoposide = compound: COc1cc([C@@H]2c3cc4c(cc3[C@@H](O[C@@H]3O[C@@H]5CO[C@@H](C)O[C@H]5[C@H](O)[C@H]3O)[C@H]3COC(=O)[C@H]23)OCO4)cc(OC)c1O [Etoposide]; details: max 10 µM
In short: as §1

Gefitinib = compound: COc1cc2ncnc(Nc3ccc(F)c(Cl)c3)c2cc1OCCCN1CCOCC1 [Gefitinib]; details: max 10 µM
In short: as §1

Prexasertib = compound: COc1cccc(OCCCN)c1-c1cc(Nc2cnc(C#N)cn2)n[nH]1 [Prexasertib]; details: max 1 µM
In short: as §1

Doxorubicin = compound: COc1cccc2c1C(=O)c1c(O)c3c(c(O)c1C2=O)C[C@@](O)(C(=O)CO)C[C@@H]3O[C@H]1C[C@H](N)[C@H](O)[C@H](C)O1 [Doxorubicin]; details: max 1 µM
In short: as §1

AZD5153 = compound: COc1nnc2ccc(N3CCC(c4ccc(OCCN5CCN(C)C(=O)[C@H]5C)cc4)CC3)nn12 [AZD5153]; details: max 1 µM
In short: as §1

Lapatinib = compound: CS(=O)(=O)CCNCc1ccc(-c2ccc3ncnc(Nc4ccc(OCc5cccc(F)c5)c(Cl)c4)c3c2)o1 [Lapatinib]; details: max 10 µM
In short: as §1

AZD8186 = compound: C[C@@H](Nc1cc(F)cc(F)c1)c1cc(C(=O)N(C)C)cc2c(=O)cc(N3CCOCC3)oc12 [AZD8186]
In short: as §1

Crizotinib = compound: C[C@@H](Oc1cc(-c2cnn(C3CCNCC3)c2)cnc1N)c1c(Cl)ccc(F)c1Cl [Crizotinib]; details: max 10 µM
In short: as §1

Savolitinib = compound: C[C@@H](c1ccc2nccn2c1)n1nnc2ncc(-c3cnn(C)c3)nc21 [Savolitinib]; details: max 1 µM
In short: as §1

AZD6738 = compound: C[C@@H]1COCCN1C2=NC(=NC(=C2)C3(CC3)[S@](=N)(=O)C)C4=C5C=CNC5=NC=C4 [AZD6738]; details: max 10 µM
In short: as §1

AZD5991 = compound: Cc1c2c(nn1C)CSCc1cc(n(C)n1)CSc1cc(c3ccccc3c1)OCCCc1c(C(=O)O)n(C)c3c-2c(Cl)ccc13 [AZD5991]; details: max 1 µM
In short: as §1

AZD7648 = compound: Cc1cc2ncnn2cc1Nc1ncc2c(n1)n(C1CCOCC1)c(=O)n2C [AZD7648]; details: max 10 µM
In short: as §1

Taselisib = compound: Cc1nc(-c2cn3c(n2)-c2ccc(-c4cnn(C(C)(C)C(N)=O)c4)cc2OCC3)n(C(C)C)n1 [Taselisib]; details: max 10 µM
In short: as §1

Selumetinib = compound: Cn1cnc2c(F)c(Nc3ccc(Br)cc3Cl)c(C(=O)NOCCO)cc21 [Selumetinib]; details: max 10 µM
In short: as §1

SRA737 = compound: N#Cc1cnc(Nc2cc(NC[C@H]3CNCCO3)c(C(F)(F)F)cn2)cn1 [SRA737]; details: max 10 µM
In short: as §1

MK-2206 = compound: NC1(c2ccc(-c3nc4ccn5c(=O)[nH]nc5c4cc3-c3ccccc3)cc2)CCC1 [MK-2206]; details: max 10 µM
In short: as §1

Gemcitabine = compound: Nc1ccn([C@@H]2O[C@H](CO)[C@@H](O)C2(F)F)c(=O)n1 [Gemcitabine]; details: max 0.3 µM
In short: as §1

[1] = compound: O=C(Nc1ccc2[nH]nc(-c3ccncc3)c2c1)[C@@H]1CCN(CC(=O)N2CCN(c3ccc(-c4ncccn4)cc3)CC2)C1; details: max 5 µM
In short: as §1

Olaparib = compound: O=C(c1cc(Cc2n[nH]c(=O)c3ccccc23)ccc1F)N1CCN(C(=O)C2CC2)CC1 [Olaparib]; details: max 10 µM
In short: as §1

5-Fluorouracil = compound: O=c1[nH]cc(F)c(=O)[nH]1 [5-Fluorouracil]; details: max 20 µM
In short: as §1

Capivasertib = compound: C1CN(CCC1(C(=O)N[C@@H](CCO)C2=CC=C(C=C2)Cl)N)C3=NC=NC4=C3C=CN4 [Capivasertib]; details: max 10 µM
In short: as §1

Row | Cell Line | IC50, cell viability 72 h (Carboplatin) | IC50, cell viability 72 h (AZD5363) | IC50, cell viability 72 h (AZD1775) | IC50, cell viability 72 h (Trametinib) | IC50, cell viability 72 h (Paclitaxel) | IC50, cell viability 72 h (Palbociclib) | IC50, cell viability 72 h (AZD1390) | IC50, cell viability 72 h (Venetoclax) | IC50, cell viability 72 h (Dasatinib) | IC50, cell viability 72 h (SG3199) | IC50, cell viability 72 h (AZD2811) | IC50, cell viability 72 h (SN-38) | IC50, cell viability 72 h (AZD0156) | IC50, cell viability 72 h (AZD4320) | IC50, cell viability 72 h (Alisertib) | IC50, cell viability 72 h (Etoposide) | IC50, cell viability 72 h (Gefitinib) | IC50, cell viability 72 h (Prexasertib) | IC50, cell viability 72 h (Doxorubicin) | IC50, cell viability 72 h (AZD5153) | IC50, cell viability 72 h (Lapatinib) | IC50, cell viability 72 h (AZD8186; max 10 µM) | IC50, cell viability 72 h (Crizotinib) | IC50, cell viability 72 h (Savolitinib) | IC50, cell viability 72 h (AZD6738) | IC50, cell viability 72 h (AZD5991) | IC50, cell viability 72 h (AZD7648) | IC50, cell viability 72 h (Taselisib) | IC50, cell viability 72 h (Selumetinib) | IC50, cell viability 72 h (SRA737) | IC50, cell viability 72 h (MK-2206) | IC50, cell viability 72 h (Gemcitabine) | IC50, cell viability 72 h [1] | IC50, cell viability 72 h (Olaparib) | IC50, cell viability 72 h (5-Fluorouracil) | IC50, cell viability 72 h (Capivasertib) | IC50, cell viability 72 h (AZD8186; max 3 µM)
1 | COR-L95 (Small Cell Lung Carcinoma) | > 10 µM | > 10 µM | > 3 µM | > 1 µM | > 3 µM | > 10 µM | > 0.3 µM | 0.392 µM | > 2 µM | > 0.001 µM | > 1 µM | 0.0149 µM | > 3 µM | 0.00732 µM | > 10 µM | > 10 µM | > 10 µM | 0.123 µM | 0.15 µM | > 1 µM | > 10 µM | > 10 µM | > 10 µM | > 1 µM | > 10 µM | > 1 µM | > 10 µM | > 10 µM | > 10 µM | > 10 µM | > 10 µM | > 0.3 µM | > 5 µM | > 10 µM | > 20 µM |  | 
2 | KM-H2 (Hodgkin's Lymphoma) |  |  | 0.615 µM | > 1 µM |  | > 10 µM | > 0.3 µM | > 1 µM | > 2 µM | > 0.001 µM | > 1 µM | 0.0488 µM | > 3 µM | > 1 µM | > 10 µM |  | > 10 µM | 0.0291 µM | 0.534 µM | > 1 µM | > 10 µM |  | > 10 µM | > 1 µM | 4.62 µM | > 1 µM | > 10 µM | > 10 µM | > 10 µM |  | > 10 µM |  |  | > 10 µM |  | > 10 µM | > 3 µM
3 | NCI-H211 (Small Cell Lung Carcinoma) | > 10 µM | 9.9 µM | 0.628 µM | > 1 µM | < 0.003 µM | 6.13 µM | > 0.3 µM | 0.113 µM | > 2 µM |  | 0.0195 µM | 0.00231 µM | > 3 µM | 0.0233 µM |  | 0.342 µM | > 10 µM |  |  | 0.0302 µM | 8.54 µM | > 10 µM | 1.92 µM | > 1 µM | 5.99 µM | 0.307 µM | > 10 µM | > 10 µM | > 10 µM | > 10 µM | > 10 µM | 0.00872 µM | > 5 µM | 3.58 µM | > 20 µM |  | 
4 | NCI-H1781 (Lung Adenocarcinoma) |  |  | 0.839 µM | > 1 µM |  | > 10 µM | > 0.3 µM | > 1 µM | > 2 µM | > 0.001 µM | 0.583 µM | 0.00506 µM | > 3 µM | > 1 µM | 1.77 µM |  | 5.37 µM | 0.709 µM | 0.107 µM | > 1 µM | 8.92 µM |  | > 10 µM | > 1 µM | > 10 µM | > 1 µM | > 10 µM | 2.11 µM | > 10 µM |  |  |  |  | > 10 µM |  | 7.07 µM | > 3 µM
5 | NCI-H1793 (Lung Adenocarcinoma) |  |  | > 3 µM | > 1 µM |  | > 10 µM | > 0.3 µM | > 1 µM | 1.1 µM | > 0.001 µM | > 1 µM | > 0.3 µM | > 3 µM | > 1 µM | > 10 µM |  | > 10 µM | 0.938 µM | > 1 µM | > 1 µM | > 10 µM |  | > 10 µM | > 1 µM | > 10 µM | > 1 µM | > 10 µM | > 10 µM | > 10 µM |  |  |  |  | > 10 µM |  | > 10 µM | > 3 µM
6 | NCI-H2369 (Mesothelioma) |  |  | > 3 µM | > 1 µM |  | > 10 µM | > 0.3 µM | > 1 µM | > 2 µM | > 0.001 µM | > 1 µM | > 0.3 µM | > 3 µM | > 1 µM | > 10 µM |  | > 10 µM | > 1 µM | > 1 µM | > 1 µM | > 10 µM |  | > 10 µM | > 1 µM | > 10 µM | > 1 µM | > 10 µM | > 10 µM | > 10 µM |  |  |  |  | > 10 µM |  | > 10 µM | > 3 µM
